Molecular target: T1, c-kit kinase (Homo sapiens, UniProt P10721)
T1 construct: The c-kit (or kinase domain thereof) is an active kinase in AlphaScreen; poly-Histidine tag (in-house protein only) (cleaved yes); host or cells: E. coli BL21(DE3)RIL, co-expressed with PTP1B
Assay: c-Kit biochemical assay, AlphaScreen, 10 μM ATP
Settings: c-kit biochemical inhibitory activity; read-out: Biochemical activity (IC50 μM) Kit
Protocol: IC50 values are determined with respect to inhibition of c-Kit kinase activity, where inhibition of phosphorylation of a peptide substrate is measured as a function of compound concentration. Compounds to be tested were dissolved in DMSO to a concentration of 20 mM. These were diluted 30 μl into 120 μl of DMSO (4 mM) and 1 μl was added to an assay plate. These were then serially diluted 1:3 (50 μl to 100 μl DMSO) for a total of 8 points. Plates were prepared such that each kinase reaction is 20 μl in 1× kinase buffer (50 mM HEPES, pH 7.2, 5 mM MgCl2, 5 mM MnCl2, 0.01% NP-40, 0.2% BSA), 5% DMSO and 10 μM ATP. […] C-kit kinase was at 0.1 ng per sample. After incubation of the kinase reaction for 1 hour at room temperature, 5 μl of donor beads (Streptavidin coated beads (Perkin Elmer Life Science) final concentration 1 μg/ml) in stop buffer (50 mM EDTA in 1× kinase buffer) was added, the sample was mixed and incubated for 20 minutes at room temperature before adding 5 μl of acceptor beads (PY20 coated beads (Perkin Elmer Life Science) final concentration 1 μg/ml) in stop buffer. The samples were incubated for 60 minutes at room temperature and the signal per well was read on AlphaQuest reader. […] The signal vs. compound concentration was used to determine the IC50.
Complementary DNA cloned from various human tissues were purchased from Invitrogen, and these were used as substrates in the PCR reactions. Specific custom synthetic oligonucleotide primers were designed to initiate the PCR product, and also to provide the appropriate restriction enzyme cleavage sites for ligation with the plasmids. The entire sequence encoding the enzyme was made through a gene synthesis procedure, using custom synthetic oligonucleotides covering the entire coding sequence (Invitrogen, see below).
The plasmid used for ligation with the kinase-encoding inserts was derivative of pET (Novagen) for expression using E. coli. The Kit kinase was engineered to include a Histidine tag for purification using metal affinity chromatography. The kinase-encoding plasmid was engineered as bicistronic mRNA to co-express a second protein that modifies the kinase protein during its expression in the host cell. Protein tyrosine phosphatase 1B (PTP), was co-expressed for dephosphorylation of the phospho-Tyrosines.
For protein expression, the plasmid containing the Kit gene was transformed into E. coli strains BL21(DE3)RIL and transformants selected for growth on LB agar plates containing appropriate antibiotics. Single colonies were grown overnight at 37° C. in 200 ml TB (Terrific broth) media. 16×1 L of fresh TB media in 2.8 L flasks were inoculated with 10 ml of overnight culture and grown with constant shaking at 37° C. Once cultures reached an absorbance of 1.0 at 600 nm, IPTG was added and cultures were allowed to grow for a further 12 to 18 hrs at temperatures ranging from 12-30° C. Cells were harvested by centrifugation and pellets frozen at […] until ready for lysis.
For protein Purification; frozen E. coli cell pellets were resuspended in lysis buffer and lysed using standard mechanical methods. Protein was purified via poly-Histidine tags using immobilized metal affinity purification IMAC. The Kit kinase was purified using a 3 step purification process utilizing; IMAC, size exclusion chromatography and ion exchange chromatography. The poly-Histidine tag was removed using Thrombin (Calbiochem).

T1 sequence (P10721 26-976): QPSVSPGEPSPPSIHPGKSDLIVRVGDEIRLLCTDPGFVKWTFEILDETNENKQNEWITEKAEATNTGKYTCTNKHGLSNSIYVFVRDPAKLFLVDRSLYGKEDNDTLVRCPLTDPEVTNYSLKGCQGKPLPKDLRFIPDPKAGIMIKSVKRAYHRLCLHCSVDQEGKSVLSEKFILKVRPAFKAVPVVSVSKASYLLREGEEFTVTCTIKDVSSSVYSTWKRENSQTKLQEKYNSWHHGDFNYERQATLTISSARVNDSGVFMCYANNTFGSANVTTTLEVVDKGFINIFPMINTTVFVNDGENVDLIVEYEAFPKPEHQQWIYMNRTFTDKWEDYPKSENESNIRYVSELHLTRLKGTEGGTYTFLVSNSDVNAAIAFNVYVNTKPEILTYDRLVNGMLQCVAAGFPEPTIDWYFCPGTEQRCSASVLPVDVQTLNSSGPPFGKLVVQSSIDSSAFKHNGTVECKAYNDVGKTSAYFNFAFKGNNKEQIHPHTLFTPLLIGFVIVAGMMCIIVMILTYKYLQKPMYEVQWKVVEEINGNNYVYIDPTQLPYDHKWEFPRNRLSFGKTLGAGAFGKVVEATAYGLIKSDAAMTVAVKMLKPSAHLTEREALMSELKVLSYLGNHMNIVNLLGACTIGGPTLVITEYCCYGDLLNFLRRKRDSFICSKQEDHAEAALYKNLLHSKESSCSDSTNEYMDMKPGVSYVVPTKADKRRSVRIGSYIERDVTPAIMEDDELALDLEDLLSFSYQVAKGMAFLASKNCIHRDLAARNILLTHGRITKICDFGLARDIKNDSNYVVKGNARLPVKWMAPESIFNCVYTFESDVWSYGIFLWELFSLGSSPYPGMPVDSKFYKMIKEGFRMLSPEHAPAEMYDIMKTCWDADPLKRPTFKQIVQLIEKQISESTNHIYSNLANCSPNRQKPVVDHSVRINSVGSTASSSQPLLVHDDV

SMILES	IC50
Cc1cc2c(-c3ccc(NS(=O)(=O)c4ccccc4F)c(F)c3)ncnc2[nH]1 [P-0348, 2-fluoro-N-[2-fluoro-4-(6-methyl-7H-pyrrolo[2,3-d]pyrimidin-4-yl)phenyl]benzenesulfonamide]	0.0001 to 1 µM
CS(=O)(=O)Nc1cc(F)c(-c2ncnc3[nH]c(-c4ccc(F)cc4)cc23)cc1F [P-0356, N-[2,5-difluoro-4-[6-(4-fluorophenyl)-7H-pyrrolo[2,3-d]pyrimidin-4-yl]phenyl]methanesulfonamide]	0.0001 to 1 µM
Fc1ccc(-c2cc3c(-c4cccnc4C(F)(F)F)ncnc3[nH]2)cc1 [P-0374, 6-(4-fluorophenyl)-4-[2-(trifluoromethyl)-3-pyridyl]-7H-pyrrolo[2,3-d]pyrimidine]	10 to 200 µM
Cc1cc2c(-c3ccc(NS(=O)(=O)C4CC4)cc3)ncnc2[nH]1 [P-0377, N-[4-(6-methyl-7H-pyrrolo[2,3-d]pyrimidin-4-yl)phenyl]cyclopropanesulfonamide]	10 to 200 µM
CS(=O)(=O)c1ccc(-c2ncnc3[nH]c(-c4ccc(F)cc4)cc23)cc1 [P-0391, 6-(4-fluorophenyl)-4-(4-methylsulfonylphenyl)-7H-pyrrolo[2,3-d]pyrimidine]	1 to 10 µM
Fc1ccc(-c2cc3c(-c4ccncc4)ncnc3[nH]2)cc1 [P-0392, 6-(4-fluorophenyl)-4-(4-pyridyl)-7H-pyrrolo[2,3-d]pyrimidine]	0.0001 to 1 µM
Fc1ccc(-c2cc3c(-c4ccc(F)cc4)ncnc3[nH]2)cc1 [P-0395, 4,6-bis(4-fluorophenyl)-7H-pyrrolo[2,3-d]pyrimidine]	0.0001 to 1 µM
CCCCNS(=O)(=O)c1ccc(-c2ncnc3[nH]c(-c4ccc(F)cc4)cc23)cc1 [P-0421, N-butyl-4-[6-(4-fluorophenyl)-7H-pyrrolo[2,3-d]pyrimidin-4-yl]benzenesulfonamide]	10 to 200 µM
Cc1ccc(-c2cc3c(N4CCC(NS(=O)(=O)c5ccc(OC(F)(F)F)cc5)CC4)ncnc3[nH]2)cn1 [P-0459, N-[1-[6-(6-methyl-3-pyridyl)-7H-pyrrolo[2,3-d]pyrimidin-4-yl]-4-piperidyl]-4-(trifluoromethoxy)benzenesulfonamide]	10 to 200 µM
N#Cc1ccc(-c2cc3c(N4CCC(NS(=O)(=O)c5ccc(OC(F)(F)F)cc5)CC4)ncnc3[nH]2)cc1 [P-0464, N-[1-[6-(4-cyanophenyl)-7H-pyrrolo[2,3-d]pyrimidin-4-yl]-4-piperidyl]-4-(trifluoromethoxy)benzenesulfonamide]	10 to 200 µM
CS(=O)(=O)NC1CCN(c2ncnc3[nH]c(C#CC4CC4)cc23)CC1 [P-0472, N-[1-[6-(2-cyclopropylethynyl)-7H-pyrrolo[2,3-d]pyrimidin-4-yl]-4-piperidyl]methanesulfonamide]	10 to 200 µM
O=C1CCCN1c1ccc(S(=O)(=O)NC2CCN(c3ncnc4[nH]c(-c5ccc(Cl)cc5)cc34)CC2)cc1 [P-0473, N-[1-[6-(4-chlorophenyl)-7H-pyrrolo[2,3-d]pyrimidin-4-yl]-4-piperidyl]-4-(2-oxopyrrolidin-1-yl)benzenesulfonamide]	10 to 200 µM
CN(C)c1ccc(NC(=O)NC2CCN(c3ncnc4[nH]ccc34)CC2)cc1 [P-0506, 1-(4-dimethylaminophenyl)-3-[1-(7H-pyrrolo[2,3-d]pyrimidin-4-yl)-4-piperidyl]urea]	10 to 200 µM
O=C(Nc1ccc(Cl)cc1)NC1CCN(c2ncnc3[nH]ccc23)CC1 [P-0519, 1-(4-chlorophenyl)-3-[1-(7H-pyrrolo[2,3-d]pyrimidin-4-yl)-4-piperidyl]urea]	10 to 200 µM
O=C(NC(=O)c1ccccc1)NC1CCN(c2ncnc3[nH]ccc23)CC1 [P-0522, N-[[1-(7H-pyrrolo[2,3-d]pyrimidin-4-yl)-4-piperidyl]carbamoyl]benzamide]	10 to 200 µM
O=C(NC1CCCC1)NC1CCN(c2ncnc3[nH]ccc23)CC1 [P-0526, 1-cyclopentyl-3-[1-(7H-pyrrolo[2,3-d]pyrimidin-4-yl)-4-piperidyl]urea]	10 to 200 µM
CCCC(=O)NC1CCN(c2ncnc3[nH]ccc23)CC1 [P-0527, N-[1-(7H-pyrrolo[2,3-d]pyrimidin-4-yl)-4-piperidyl]butanamide]	10 to 200 µM

SMILES	IC50
O=C(NC1CCN(c2ncnc3[nH]ccc23)CC1)C1CCCCC1 [P-0528, N-[1-(7H-pyrrolo[2,3-d]pyrimidin-4-yl)-4-piperidyl]cyclohexanecarboxamide]	10 to 200 µM
O=C(NC1CCN(c2ncnc3[nH]ccc23)CC1)C1CCCC1 [P-0529, N-[1-(7H-pyrrolo[2,3-d]pyrimidin-4-yl)-4-piperidyl]cyclopentanecarboxamide]	10 to 200 µM
CCc1ccc(C(=O)NC2CCN(c3ncnc4[nH]ccc34)CC2)cc1 [P-0530, 4-ethyl-N-[1-(7H-pyrrolo[2,3-d]pyrimidin-4-yl)-4-piperidyl]benzamide]	10 to 200 µM
O=C(NC1CCN(c2ncnc3[nH]ccc23)CC1)c1ccccc1 [P-0531, N-[1-(7H-pyrrolo[2,3-d]pyrimidin-4-yl)-4-piperidyl]benzamide]	10 to 200 µM
CCCS(=O)(=O)NC1CCN(c2ncnc3[nH]ccc23)CC1 [P-0532, N-[1-(7H-pyrrolo[2,3-d]pyrimidin-4-yl)-4-piperidyl]propane-1-sulfonamide]	10 to 200 µM
O=S(=O)(NC1CCN(c2ncnc3[nH]ccc23)CC1)c1ccccc1 [P-0533, N-[1-(7H-pyrrolo[2,3-d]pyrimidin-4-yl)-4-piperidyl]benzenesulfonamide]	10 to 200 µM
CCOc1ccc(NC(=O)NC2CCN(c3ncnc4[nH]ccc34)CC2)cc1 [P-0534, 1-(4-ethoxyphenyl)-3-[1-(7H-pyrrolo[2,3-d]pyrimidin-4-yl)-4-piperidyl]urea]	10 to 200 µM
CCc1ccc(NC(=O)NC2CCN(c3ncnc4[nH]ccc34)CC2)cc1 [P-0535, 1-(4-ethylphenyl)-3-[1-(7H-pyrrolo[2,3-d]pyrimidin-4-yl)-4-piperidyl]urea]	1 to 10 µM
CCCNC(=O)NC1CCN(c2ncnc3[nH]ccc23)CC1 [P-0536, 1-propyl-3-[1-(7H-pyrrolo[2,3-d]pyrimidin-4-yl)-4-piperidyl]urea]	10 to 200 µM
O=C(NC1CCCCC1)NC1CCN(c2ncnc3[nH]ccc23)CC1 [P-0537, 1-cyclohexyl-3-[1-(7H-pyrrolo[2,3-d]pyrimidin-4-yl)-4-piperidyl]urea]	10 to 200 µM
O=C(Nc1ccccc1)NC1CCN(c2ncnc3[nH]ccc23)CC1 [P-0538, 1-phenyl-3-[1-(7H-pyrrolo[2,3-d]pyrimidin-4-yl)-4-piperidyl]urea]	10 to 200 µM
Cc1ccc(-c2cc3c(C4=CCC(NS(=O)(=O)c5ccc(OC(F)(F)F)cc5)CC4)ncnc3[nH]2)cn1 (stereo not drawn) [P-0544, N-[4-[6-(6-methyl-3-pyridyl)-7H-pyrrolo[2,3-d]pyrimidin-4-yl]cyclohex-3-en-1-yl]-4-(trifluoromethoxy)benzenesulfonamide]	10 to 200 µM
Cn1cc(-c2cc3c(C4=CCC(NS(=O)(=O)c5ccc(OC(F)(F)F)cc5)CC4)ncnc3[nH]2)cn1 (stereo not drawn) [P-0545, N-[4-[6-(1-methylpyrazol-4-yl)-7H-pyrrolo[2,3-d]pyrimidin-4-yl]cyclohex-3-en-1-yl]-4-(trifluoromethoxy)benzenesulfonamide]	1 to 10 µM
COc1cccc([C@H](C)NC(=O)N2CCN(c3ncnc4cc(N5CCOCC5)sc34)CC2)c1 [P-0548, N-[(1S)-1-(3-methoxyphenyl)ethyl]-4-(6-morpholinothieno[3,2-d]pyrimidin-4-yl)piperazine-1-carboxamide]	1 to 10 µM
C[C@H](NC(=O)N1CC2CCC1CN2c1ncnc2cc(-c3ccc(F)cc3)sc12)c1cccc(Cl)c1 (stereo partly drawn) [P-0565, N-[(1S)-1-(3-chlorophenyl)ethyl]-5-[6-(4-fluorophenyl)thieno[3,2-d]pyrimidin-4-yl]-2,5-diazabicyclo[2.2.2]octane-2-carboxamide]	1 to 10 µM
Cc1ccc(S(=O)(=O)Nc2ccc(-c3cc4ncnc(N5CCN(C(=O)Nc6ccccc6)CC5)c4s3)cc2)cc1 [P-0625, N-phenyl-4-[6-[4-(p-tolylsulfonylamino)phenyl]thieno[3,2-d]pyrimidin-4-yl]piperazine-1-carboxamide]	10 to 200 µM
